For this assay, the target named is bovine cardiac myosin (Bos taurus, UniProt Q9BE39). The assay can be described thus: Myosin inhibition assay (PK/LDH-coupled ATPase, bovine cardiac myofibrils). It counts as biochemical. Particulars: calcium concentration giving 50% activation, pH 6.8, read-out: bcMF pCa_6 IC50. How it is done: Small molecule agents were assessed for their ability to inhibit the enzymatic activity of bovine cardiac myosin using a biochemical assay that couples the release of ADP (adenosine diphosphate) from cardiac myosin to an enzymatic coupling system consisting of pyruvate kinase and lactate dehydrogenase (PK/LDH) and monitoring the absorbance decrease of NADH (at 340 nm) as a function of time. PK converts ADP to ATP (adenosine triphosphate) by converting PEP (phosphoenolpyruvate) to pyruvate. Pyruvate is then converted to lactate by LDH by converting NADH (nicotinamide adenine dinucleotide) to NAD (oxidized nicotinamide adenine dinucleotide). […] Prior to testing small molecule agents, the bovine myofibrils were assessed for their calcium responsiveness and the calcium concentration that achieves a 50% activation of the myofibril system was chosen as the final condition for assessing the inhibitory activity of the small molecule agents. All enzymatic activity was measured in a buffered solution containing 12 mM PIPES (piperazine-N,N′-bis(2-ethanesulfonic acid), 2 mM magnesium chloride at pH 6.8 (PM12 buffer). Final assay conditions were 1 mg/mL of bovine cardiac myofibrils, 0.4 mM PK/LDH, 50 uM ATP, 0.1 mg/mL BSA (bovine serum albumin), 10 ppm antifoam, 2 mM BME, 0.5 mM NADH, 1.5 mM PEP at the desired free calcium concentration required to achieve 50% activation of the myofibrils.
A dilution series of compound was created in DMSO such that the final desired concentration of compound would be achieved in a volume of 30 μL with a fixed DMSO concentration of 3.3% (v/v). Typically 1 μL of the dilution series were added to 384 well plate to achieve an 10 point dose response. Following the addition of 14 μL of a solution containing bovine cardiac myofibrils, PK/LDH and a solution of calcium (that achieved 50% activation), the enzymatic reaction was started with the addition of 15 μL of a solution containing ATP, PEP and NADH. The reaction progress was followed in a PerkinElmer Envision plate reader at ambient temperature using clear bottom plates. The plate reader was configured to read absorbance at 340 nm in kinetics mode for 15 minutes. Data were recorded as the slope of the absorbance response to time. The slopes of the absorbance response as a function of time were normalized to slopes on the plate containing DMSO. This normalized rate was then plotted as a function of small molecule concentration and the data was fitted to a four-parameter fit using EXCEL XLfit. The IC50 is the concentration at which fifty percent of the total response is inhibited.

This is an account of results in US9663516B2, “Bicyclic-pyrimidinedione compounds” (MyoKardia, Inc., priority 2014, dated 2017).

By IC50 is commonly meant the point on the concentration scale where inhibition reaches its midpoint.

Sequence of bovine cardiac myosin (Q9BE39 whole entry): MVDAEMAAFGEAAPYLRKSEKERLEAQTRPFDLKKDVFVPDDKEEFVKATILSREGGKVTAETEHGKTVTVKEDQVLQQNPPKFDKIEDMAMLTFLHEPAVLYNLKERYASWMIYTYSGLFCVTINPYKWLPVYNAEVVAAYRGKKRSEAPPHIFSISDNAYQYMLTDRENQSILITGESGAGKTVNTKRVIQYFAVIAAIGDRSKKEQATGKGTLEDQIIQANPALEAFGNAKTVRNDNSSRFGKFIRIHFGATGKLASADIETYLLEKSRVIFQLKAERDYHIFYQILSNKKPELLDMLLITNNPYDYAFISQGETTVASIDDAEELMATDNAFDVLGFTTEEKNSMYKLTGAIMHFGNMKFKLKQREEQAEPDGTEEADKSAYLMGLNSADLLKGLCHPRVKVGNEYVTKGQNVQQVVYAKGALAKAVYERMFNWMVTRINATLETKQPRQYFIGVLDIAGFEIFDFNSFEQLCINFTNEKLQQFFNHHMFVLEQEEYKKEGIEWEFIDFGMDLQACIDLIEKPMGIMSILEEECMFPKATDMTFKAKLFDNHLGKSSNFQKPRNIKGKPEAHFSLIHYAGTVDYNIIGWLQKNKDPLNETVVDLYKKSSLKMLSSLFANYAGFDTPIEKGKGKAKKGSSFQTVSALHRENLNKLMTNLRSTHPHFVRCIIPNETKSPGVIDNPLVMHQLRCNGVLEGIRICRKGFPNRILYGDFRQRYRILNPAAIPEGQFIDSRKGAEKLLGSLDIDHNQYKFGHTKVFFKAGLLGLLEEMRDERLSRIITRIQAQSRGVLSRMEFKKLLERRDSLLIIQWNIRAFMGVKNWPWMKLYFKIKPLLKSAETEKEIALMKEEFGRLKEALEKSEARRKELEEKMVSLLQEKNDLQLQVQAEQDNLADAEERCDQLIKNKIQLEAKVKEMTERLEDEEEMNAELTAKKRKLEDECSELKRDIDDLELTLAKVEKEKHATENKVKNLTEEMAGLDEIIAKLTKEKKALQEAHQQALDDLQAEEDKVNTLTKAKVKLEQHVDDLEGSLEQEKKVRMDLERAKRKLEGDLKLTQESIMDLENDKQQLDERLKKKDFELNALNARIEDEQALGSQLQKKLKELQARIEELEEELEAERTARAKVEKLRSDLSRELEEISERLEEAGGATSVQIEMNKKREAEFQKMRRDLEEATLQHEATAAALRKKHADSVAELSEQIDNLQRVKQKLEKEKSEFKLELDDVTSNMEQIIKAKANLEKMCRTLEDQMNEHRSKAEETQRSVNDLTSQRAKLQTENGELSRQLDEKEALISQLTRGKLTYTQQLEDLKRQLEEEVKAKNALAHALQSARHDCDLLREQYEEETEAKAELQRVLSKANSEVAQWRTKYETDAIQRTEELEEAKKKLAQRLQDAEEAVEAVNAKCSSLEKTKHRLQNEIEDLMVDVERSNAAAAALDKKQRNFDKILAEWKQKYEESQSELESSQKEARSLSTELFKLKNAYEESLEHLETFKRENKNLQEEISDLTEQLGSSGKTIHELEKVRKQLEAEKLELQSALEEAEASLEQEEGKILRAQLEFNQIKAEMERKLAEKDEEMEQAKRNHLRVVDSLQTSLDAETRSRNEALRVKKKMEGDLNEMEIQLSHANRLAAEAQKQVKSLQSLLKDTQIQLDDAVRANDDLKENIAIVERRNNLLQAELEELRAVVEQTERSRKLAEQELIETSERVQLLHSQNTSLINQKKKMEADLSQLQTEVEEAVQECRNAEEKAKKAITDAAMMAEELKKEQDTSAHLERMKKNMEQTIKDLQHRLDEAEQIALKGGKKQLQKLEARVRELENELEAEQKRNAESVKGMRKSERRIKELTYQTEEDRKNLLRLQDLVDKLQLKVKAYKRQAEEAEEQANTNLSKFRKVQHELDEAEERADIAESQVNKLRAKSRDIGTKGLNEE
Sequence of bovine cardiac myosin (P85100 whole entry partner): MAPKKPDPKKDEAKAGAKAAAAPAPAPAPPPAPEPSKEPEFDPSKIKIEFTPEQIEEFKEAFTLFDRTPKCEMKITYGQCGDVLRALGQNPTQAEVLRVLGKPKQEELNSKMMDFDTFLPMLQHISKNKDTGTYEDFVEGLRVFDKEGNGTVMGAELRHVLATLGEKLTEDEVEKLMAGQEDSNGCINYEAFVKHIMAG
Sequence of bovine cardiac myosin (Q3SZE5 whole entry partner): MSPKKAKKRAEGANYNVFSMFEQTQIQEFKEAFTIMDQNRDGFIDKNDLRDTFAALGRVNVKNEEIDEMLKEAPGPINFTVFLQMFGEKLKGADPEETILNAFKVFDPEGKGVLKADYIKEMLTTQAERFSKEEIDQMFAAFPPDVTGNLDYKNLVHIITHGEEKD

Regarding `CCn1c(=O)[nH]c2c(c1=O)CC[C@H](c1ccccc1)N2` [Compound 64], the IC50 is greater than 15 µM. `CC1(n2c(=O)[nH]c3c(c2=O)CC[C@H](C2CCC(F)(F)CC2)N3)CC1` [Compound 37]: the IC50 is less than 1 µM. To `CC1(n2c(=O)[nH]c3c(c2=O)CC[C@@H](c2ccccc2F)N3)CC1` [Compound 113] belongs greater than 15 µM; to `CC(C)n1c(=O)[nH]c2c(c1=O)CC[C@](C)(c1cc(F)ccc1F)N2` [Compound 115], less than 1 µM. Consider `CCn1c(=O)[nH]c2c(c1=O)CC[C@@H](c1ccc(F)c(F)c1)CN2` [Compound 98], for which the 50% inhibitory concentration (IC50) was greater than 15 µM. For `COc1cccc([C@H]2CCc3c([nH]c(=O)n(C(C)C)c3=O)N2)c1` [Compound 5, (R)-3-Isopropyl-7-(3-methoxyphenyl)-5,6,7,8-tetrahydropyrido[2,3-d]pyrimidine-2,4(1H,3H)-dione] the value was 1 to 15 µM; for `CCn1c(=O)[nH]c2c(c1=O)C[C@](C)(c1ccccc1)N2` [Compound 144], greater than 15 µM; for `CC[C@@H](C)n1c(=O)[nH]c2c(c1=O)CC[C@H](C1CCC(F)(F)CC1)N2` [Compound 78], less than 1 µM.

`CC(C)n1c(=O)[nH]c2c(c1=O)C[C@@H](c1ccccc1)N2` (single isomer, unassigned) [Compound 8]: the IC50 is greater than 15 µM.

`CC(C)Cn1c(=O)[nH]c2c(c1=O)CC[C@H](c1ccc(F)c(F)c1)N2` [Compound 80]: the half-inhibitory concentration (IC50) is 1 to 15 µM. For `CC(C)n1c(=O)[nH]c2c(c1=O)C[C@@H](C)[C@H](c1ccccc1)N2` [Compound 91] the value was greater than 15 µM; for `CC[C@H](C)n1c(=O)[nH]c2c(c1=O)CC[C@H](C1CCC(F)(F)CC1)N2` [Compound 29], 1 to 15 µM; for `O=c1[nH]c2c(c(=O)n1-c1ccccn1)CC[C@H](C1CCC(F)(F)CC1)N2` [Compound 45], less than 1 µM. As to `O=c1[nH]c2c(c(=O)n1C1CCC1)CC[C@H](c1ccccc1)N2` [Compound 28], the IC50 fell in the range of 1 to 15 µM. On to `Cc1cccc([C@H]2CCc3c([nH]c(=O)n(C4(C)CC4)c3=O)N2)c1` [Compound 124], for which the IC50 fell in the range of 1 to 15 µM. For `CCn1c(=O)[nH]c2c(c1=O)CC[C@H](c1cc(F)ccc1F)N2` [Compound 74] the value was 1 to 15 µM; for `CCn1c(=O)[nH]c2c(c1=O)CC[C@@](c1ccccc1)(C1CCC1)N2` [Compound 145], less than 1 µM. To `CC(C)n1c(=O)[nH]c2c(c1=O)CC[C@H](c1c(F)cccc1F)N2` [Compound 72] belongs 1 to 15 µM; to `O=c1[nH]c2c(c(=O)n1C1CC1)CC[C@H](C1CCC(F)(F)CC1)N2` [Compound 21], 1 to 15 µM. For `CC(C)n1c(=O)[nH]c2c(c1=O)CC[C@H](c1ccc(=O)[nH]c1)N2` [Compound 54] the value was greater than 15 µM; for `CC(C)n1c(=O)[nH]c2c(c1=O)CC[C@H](c1cc(F)cc(F)c1)N2` [Compound 77], 1 to 15 µM; for `O=c1[nH]c2c(c(=O)n1-c1cc(F)cc(F)c1)CC[C@H](C1CCC(O)CC1)N2` (stereo partly shown) [Compound 52], 1 to 15 µM. For the molecule `CC(C)n1c(=O)[nH]c2c(c1=O)CC[C@H](c1cccc(F)c1F)N2` [Compound 76], the IC50 fell in the range of 1 to 15 µM. To `O=c1[nH]c2c(c(=O)n1-c1cc(F)cc(F)c1)CC[C@H](CC1CC(F)(F)C1)N2` [Compound 51] belongs 1 to 15 µM; to `O=c1[nH]c2c(c(=O)n1CC1CC1)CC[C@H](C1CCC(F)(F)CC1)N2` [Compound 19], 1 to 15 µM; to `Cc1cccc([C@H]2CCc3c([nH]c(=O)n(C(C)C)c3=O)N2)c1` [Compound 102], less than 1 µM. As for `Cn1c(=O)[nH]c2c(c1=O)CC[C@](C)(c1cc(F)ccc1F)N2` [Compound 118], the IC50 lay in the range of 1 to 15 µM. Consider `O=c1[nH]c2c(c(=O)n1-c1cccc(F)n1)CC[C@H](C1CCC(F)(F)CC1)N2` [Compound 43], for which the concentration for half-maximal inhibition (IC50) was less than 1 µM. In the case of `O=c1[nH]c2c(c(=O)n1-c1cccc(F)n1)CC[C@H](c1ccccc1)N2` [Compound 34], the IC50 lay in the range of 1 to 15 µM. To `O=c1[nH]c2c(c(=O)n1CC(F)(F)F)CC[C@@H](c1ccccc1)N2` [Compound 86] belongs greater than 15 µM; to `CC(C)n1c(=O)[nH]c2c(c1=O)C[C@@H](Cc1ccccc1)N2` [Compound 88], greater than 15 µM; to `CCn1c(=O)[nH]c2c(c1=O)CC[C@@H](c1ccc(F)c(F)c1)N2` [Compound 94], 1 to 15 µM. To `CCn1c(=O)[nH]c2c(c1=O)CC[C@](c1ccccc1)(C1CCOCC1)N2` [Compound 143] belongs 1 to 15 µM; to `O=c1[nH]c2c(c(=O)n1-c1ccccc1)CC[C@@H](c1ccccc1F)N2` [Compound 109], greater than 15 µM; to `CC(C)n1c(=O)[nH]c2c(c1=O)C[C@H](C)[C@H](c1ccccc1)N2` [Compound 92], greater than 15 µM.

With `O=c1[nH]c2c(c(=O)n1CC(F)F)CC[C@H](c1cccc(F)c1)N2` [Compound 24], the IC50 was in the range of 1 to 15 µM. To `O=c1[nH]c2c(c(=O)n1-c1ccccc1)CC[C@H](C1CCC(F)(F)CC1)N2` [Compound 47] belongs less than 1 µM; to `CCCn1c(=O)[nH]c2c(c1=O)CC[C@H](c1ccc(F)c(F)c1)N2` [Compound 97], 1 to 15 µM. For `CCn1c(=O)[nH]c2c(c1=O)CC[C@@](c1ccccc1)(C(C)C)N2` [Compound 131] the value was 1 to 15 µM; for `O=c1[nH]c2c(c(=O)n1C1CCC1)CC[C@H](c1ccc(F)c(F)c1)N2` [Compound 96], 1 to 15 µM; for `O=c1[nH]c2c(c(=O)n1-c1cc(F)cc(F)c1)CC[C@H](C1CCCC1)N2` [Compound 40], 1 to 15 µM. In the case of `COC(=O)N1CCC(n2c(=O)[nH]c3c(c2=O)CC[C@](C)(c2ccc(F)c(F)c2)N3)CC1` [Compound 125], the IC50 lay in the range of 1 to 15 µM.

Turning to `CCn1c(=O)[nH]c2c(c1=O)CC[C@H](c1cc(F)cc(F)c1)N2` [Compound 25], the IC50 was greater than 15 µM. In the case of `C[C@]1(c2cc(F)ccc2F)CCc2c([nH]c(=O)n(C3CCC3)c2=O)N1` [Compound 134], the concentration for half-maximal inhibition (IC50) is less than 1 µM. To `C[C@]1(c2cc(F)ccc2F)CCc2c([nH]c(=O)n(C3CC3)c2=O)N1` [Compound 138] belongs less than 1 µM; to `C[C@]1(c2cccc(F)c2)CCc2c([nH]c(=O)n(C3CCOCC3)c2=O)N1` [Compound 128], less than 1 µM. For `CC(C)n1c(=O)[nH]c2c(c1=O)CC(F)(F)[C@H](c1cccc(Cl)c1)N2` [Compound 129] the value was less than 1 µM. For `CCn1c(=O)[nH]c2c(c1=O)CC[C@](CC)(c1ccccc1)N2` [Compound 123] the value was 1 to 15 µM; for `O=c1[nH]c2c(c(=O)n1-c1cc(F)cc(F)c1)C[C@H](c1ccccc1)N2` [Compound 71], greater than 15 µM. As to `CCCn1c(=O)[nH]c2c(c1=O)CC[C@H](C1CCC(F)(F)CC1)N2` [Compound 30], the IC50 was less than 1 µM. For `O=c1[nH]c2c(c(=O)n1-c1ccccc1)CC[C@H](c1ccccc1F)N2` [Compound 108] the value was 1 to 15 µM. For `CCn1c(=O)[nH]c2c(c1=O)CC[C@H](c1c(F)cccc1F)N2` [Compound 75], the IC50 was greater than 15 µM. As to `O=c1[nH]c2c(c(=O)n1-c1ccccc1)C(O)C[C@H](c1ccc(F)cc1)N2` (stereo partly drawn) [Compound 95, (7R)-7-(4-Fluorophenyl)-5-hydroxy-3-phenyl-5,6,7,8-tetrahydropyrido[2,3-d]pyrimidine-2,4(1H,3H)-dione], the IC50 is greater than 15 µM.

`O=c1[nH]c2c(c(=O)n1CC(F)(F)F)CC[C@H](c1ccccc1)N2` [Compound 63]: the concentration for half-maximal inhibition (IC50) is 1 to 15 µM. For `CC(C)[C@H]1CCc2c([nH]c(=O)n(-c3cc(F)cc(F)c3)c2=O)N1` [Compound 44] the value was greater than 15 µM; for `CC(C)n1c(=O)[nH]c2c(c1=O)CC[C@H](C1CC(F)(F)C1)N2` [Compound 41], 1 to 15 µM. Take `CCn1c(=O)[nH]c2c(c1=O)CCC[C@H](c1ccc(F)c(F)c1)N2` [Compound 99]: the IC50 is greater than 15 µM. For `CC(C)n1c(=O)[nH]c2c(c1=O)C[C@H](Cc1ccccc1)N2` [Compound 87], the IC50 was greater than 15 µM. In the case of `CCn1c(=O)[nH]c2c(c1=O)CC[C@H](c1cccc(F)c1F)N2` [Compound 58], the IC50 was greater than 15 µM. For `O=c1[nH]c2c(c(=O)n1-c1ccccc1)CC[C@H](c1ccccc1)N2` [Compound 26] the value was 1 to 15 µM; for `CC1(n2c(=O)[nH]c3c(c2=O)CC[C@H](c2ccccc2F)N3)CC1` [Compound 114], 1 to 15 µM.
